Read-outs that look alike come from different tables or passages of the source.
Columns and labels:
[1] = tested on: human epithelial HeLa cells; assay: HeLa cytotoxicity assay (CellTiter-Glo); assay type: cell-based; settings: pCC50
In short: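 Read-out is CellTiter-Glo luminescence after 2 days at 37 °C, on IFN-γ-stimulated (10 nM) HeLa cells seeded at 5,000/well with compounds in 11-point 3-fold dose series. pCC50 from four-parameter curve fit; wells without cells set 100% cytotoxicity, stimulated cells with DMSO set 0%.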

ePL tagged IDO1 = biological target: T1, ePL tagged IDO1 (Homo sapiens, UniProt P14902); assay: CETSA (Cellular Thermal Shifting assay) in Hela cells; assay type: binding; settings: BacMam ePL tagged IDO1, 3 hours at 37° C., heated at 53° C. for 3 min
T1 construct: expressed in transfected cells; host or cells: HeLa cells transduced with BacMam virus
Description: Cellular Thermal Shifting assays were used to directly monitor the ligand binding to target proteins in cells. Hela cells were transduced with BacMam virus expressing ePL tagged IDO1 overnight. The cells were then plated over the compounds for 3 hours at 37° C. in cell culture medium containing 1% FBS. The plates were then sealed and heated at 53° C. for 3 min. InCell Hunter reagents were added and luminescence was read in 90 min.

[2] = biological target: indoleamine 2, 3-dioxygenase (IDO1) (Homo sapiens, UniProt P14902); assay: IDO1 HeLa RapidFire MS assay (kynurenine detection by mass spectrometry); assay type: cell-based; set-up: to induce the expression of indoleamine 2, 3-dioxygenase (IDO1); settings: HeLa cells, pIC50, read-out: IDO1_HELA_PXC50 (converted)
In short: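 Compound potency reported as pIC50 from kynurenine/internal-standard ratio (RapidFire MS) in supernatant of IFN-γ-induced (10 nM) HeLa cells, 5,000 per well, after 2 days' treatment with 11-point dilutions. Cytotoxicity in the same format by luminescent ATP detection, reported as pCC50.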

T1 sequence (P14902 whole entry): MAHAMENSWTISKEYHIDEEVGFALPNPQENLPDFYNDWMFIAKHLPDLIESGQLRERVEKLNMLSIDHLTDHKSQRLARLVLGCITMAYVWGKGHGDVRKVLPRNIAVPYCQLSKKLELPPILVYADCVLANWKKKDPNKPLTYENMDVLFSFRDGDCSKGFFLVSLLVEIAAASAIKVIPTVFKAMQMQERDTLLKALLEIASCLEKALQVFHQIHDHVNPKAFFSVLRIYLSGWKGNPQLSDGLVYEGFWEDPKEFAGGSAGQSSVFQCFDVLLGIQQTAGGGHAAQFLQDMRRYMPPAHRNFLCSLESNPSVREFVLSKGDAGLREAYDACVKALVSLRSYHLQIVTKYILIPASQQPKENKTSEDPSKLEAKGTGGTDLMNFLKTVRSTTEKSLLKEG
indoleamine 2, 3-dioxygenase (IDO1), sequence (P14902 whole entry): as above

Structure (SMILES) | HELA_IDO1_TOX_PXC50 [1] | EC50 (ePL tagged IDO1; read-out: pXC50_1 (converted)) | IC50 [2] | EC50 (ePL tagged IDO1; read-out: pXC50_2 (converted))
CC(C)CN(c1ccc([C@H](C)CC(=O)O)cc1Nc1nc(C(F)(F)F)ns1)C1CCOCC1 [Example 20, (R)-3-(4-(Isobutyl(tetrahydro-2H-pyran-4-yl)amino)-3-((3-(trifluoromethyl)-1,2,4-thiadiazol-5-yl)amino)phenyl)butanoic Acid] | <5 | 9.55 nM | 2.51 nM | 
CC(C)CN(c1ccc([C@H](C)CC(=O)O)cc1Nc1nnc(C2CC2)s1)C1CCOCC1 [Example 23, (R)-3-(3-((5-cyclopropyl-1,3,4-thiadiazol-2-yl)amino)-4-(isobutyl (tetrahydro-2H-pyran-4-yl)amino)phenyl)butanoic Acid] | <5 | 331 nM | 3.98 nM | 234 nM

— patent US10899754B2, “Modulators of indoleamine 2,3-dioxygenase” (GLAXOSMITHKLINE INTELLECTUAL PROPERTY DEVELOPMENT LIMITED, priority 2016, dated 2021)
